In general, IC50 refers to the concentration needed to halve the response being measured. A high value points to weaker potency.

Experimental findings from ChEMBL document CHEMBL1212812, “Multi-target spectral moment QSAR versus ANN for antiparasitic drugs against different parasite species” (Bioorg Med Chem, 2010) are described below.

Assay type in all cases: functional, organism-based
In one assay the test system is Leishmania donovani. As to the kind of experiment: Antimicrobial activity against Leishmania donovani.
The subject of the next assay is Entamoeba histolytica. As to the kind of experiment: Antimicrobial activity against Entamoeba histolytica.
The next assay deals with Plasmodium falciparum. As to the kind of experiment: Antimicrobial activity against Plasmodium falciparum.

The compound `CC(C)CCC[C@H]1C(=O)O[C@@H]2O[C@@]3(C)CC[C@H]4[C@H](C)CC[C@@H]1[C@@]24OO3` gave an IC50 in the assay with Leishmania donovani of 9 µM. `C[C@@H]1CC[C@H]2[C@@H](CCCc3cc(F)cc(F)c3)C(=O)O[C@@H]3O[C@@]4(C)CC[C@@H]1[C@]32OO4`: the IC50 with Leishmania donovani amounted to 50 µM. Compared with the last compound, the IC50 is about 5.6-fold higher. In the assay on Leishmania donovani, `COc1ccc(CCC[C@H]2C(=O)O[C@@H]3O[C@@]4(C)CC[C@H]5[C@H](C)CC[C@@H]2[C@@]35OO4)cc1` registered an IC50 of 12 µM.

Consider `CCCC[C@H]1C(=O)O[C@@H]2O[C@@]3(CCCCc4ccccc4)CC[C@H]4[C@H](C)CC[C@@H]1[C@@]24OO3`, for which the IC50 with Leishmania donovani came to 5 µM.

`CCC[C@H]1C(=O)O[C@@H]2O[C@@]3(C)CC[C@H]4[C@H](C)CC[C@@H]1[C@@]24OO3` gave an IC50 with Leishmania donovani of 17 µM. In the case of `C[C@@H]1CC[C@H]2[C@@H](CCCc3ccc(Cl)cc3)C(=O)O[C@@H]3O[C@@]4(C)CC[C@@H]1[C@]32OO4`, the IC50 in the assay on Leishmania donovani turned out to be 12 µM.

In the assay with Leishmania donovani, `C[C@@H]1CC[C@H]2CC(=O)O[C@@H]3O[C@@]4(CCCc5ccc(Cl)cc5)CC[C@@H]1[C@@]23OO4` came in with an IC50 of 11 µM. For `O=P(O)(O)C(Nc1cc(Cl)cc(Cl)c1)P(=O)(O)O` [(3,5-DICHLOROPHENYLAMINO)METHYLENEDIPHOSPHONIC ACID], the IC50 in the assay on Entamoeba histolytica and in the assay on Plasmodium falciparum was 200 µM throughout. For `Nc1ncnc2c1ncn2[C@@H]1O[C@H](C[C@@H](N)CC[C@H](N)C(=O)O)[C@@H](O)[C@H]1O` [SINEFUNGIN], in the assay with Leishmania donovani, the IC50 amounted to 1 µM.

`O=P(O)(O)C(Nc1ncccc1OCc1ccccc1)P(=O)(O)O`: the IC50 in the assay on Entamoeba histolytica and with Plasmodium falciparum was 200 µM throughout. As for `Nc1ccc(CC(O)(P(=O)(O)O)P(=O)(O)O)cc1`, the IC50 in the assay on Entamoeba histolytica and in the assay on Plasmodium falciparum was 200 µM throughout. In the case of `CC(C)CNC(P(=O)(O)O)P(=O)(O)O` [(ISOBUTYLAMINO)METHYLENEDIPHOSPHONIC ACID], the IC50 with Entamoeba histolytica and in the assay on Plasmodium falciparum was 200 µM in each case. In the case of `Cc1ccnc(NC(P(=O)(O)O)P(=O)(O)O)c1`, the IC50 with Entamoeba histolytica and with Plasmodium falciparum was 200 µM each time.

For the compound `CCCCCNC(P(=O)(O)O)P(=O)(O)O` [(PENTYLAMINO)METHYLENEDIPHOSPHONIC ACID], the IC50 in the assay with Entamoeba histolytica is 200 µM; in the assay on Plasmodium falciparum, 5 µM.

For `C[C@@H]1CC[C@H]2[C@@H](CCCc3ccc(Cl)c(Cl)c3)CO[C@@H]3O[C@@]4(C)CC[C@@H]1[C@]32OO4`, the IC50 with Leishmania donovani amounted to 2 µM.

As to `C[C@@H]1CC[C@H]2[C@@H](CCCc3ccc(C(F)(F)F)cc3)C(O)O[C@@H]3O[C@@]4(C)CC[C@@H]1[C@]32OO4` (stereo not given in full), the IC50 with Leishmania donovani amounted to 3 µM. With `O=P(O)(O)C(N(C1CCCCC1)C1CCCCC1)P(=O)(O)O` [(DICYCLOHEXYLAMINO)METHYLENEDIPHOSPHONIC ACID], the IC50 with Entamoeba histolytica and with Plasmodium falciparum was 200 µM in each case.

For `O=P(O)(O)C(O)(Cc1c[nH]cn1)P(=O)(O)O`, the IC50 in the assay with Entamoeba histolytica and in the assay with Plasmodium falciparum was 200 µM in each case. Compound `C[C@@H]1CC[C@H]2[C@@H](CCCc3ccc(S(C)(=O)=O)cc3)C(=O)O[C@@H]3O[C@@]4(C)CC[C@@H]1[C@]32OO4` came in with an IC50 in the assay on Leishmania donovani of 54 µM. `C[C@@H]1CC[C@H]2[C@@H](CCCc3ccc(C(F)(F)F)cc3)CO[C@@H]3O[C@@]4(C)CC[C@@H]1[C@]32OO4` gave a half-inhibitory concentration (IC50) with Leishmania donovani of 2 µM.

As for `O=P(O)(O)C(Nc1ccc(Br)cn1)P(=O)(O)O`, the IC50 amounted to 44 µM in the assay with Entamoeba histolytica and 200 µM with Plasmodium falciparum.

In the case of `C=P(O)(O)C(Nc1c(F)c(F)c(F)c(F)c1F)P(=O)(O)O` (stereo not given), the IC50 in the assay with Entamoeba histolytica and with Plasmodium falciparum was 200 µM throughout.

`NCCC(O)(P(=O)(O)O)P(=O)(O)O` [PAMIDRONIC ACID]: the IC50 in the assay with Entamoeba histolytica and with Plasmodium falciparum was 200 µM throughout.

Consider `NCCC[C@](N)(C(=O)O)C(F)F` [EFLORNITHINE, (S)-], for which the IC50 in the assay with Leishmania donovani was found to be 225 µM. For the compound `O=P(O)(O)C(NCCc1ccccc1)P(=O)(O)O` [(PHENETHYLAMINO)METHYLENEDIPHOSPHONIC ACID], the IC50 in the assay with Entamoeba histolytica and in the assay with Plasmodium falciparum was 200 µM throughout. On to `C=CC[C@H]1C(=O)O[C@@H]2O[C@@]3(C)CC[C@H]4[C@H](C)CC[C@@H]1[C@@]24OO3`, for which 18 µM corresponded to half-maximal inhibition in the assay with Leishmania donovani (IC50). Consider `CCOP(=O)(OCC)C(Nc1ncccc1C)P(=O)(OCC)OCC`, for which the IC50 with Entamoeba histolytica and with Plasmodium falciparum was 200 µM in each case.

Consider `CCCCCc1ccc(NC(P(=O)(O)O)P(=O)(O)O)cc1`, for which the IC50 in the assay with Entamoeba histolytica came to 132 µM; in the assay with Plasmodium falciparum it was 46 µM. For `O=P(O)(O)C(Nc1ccccn1)P(=O)(O)O`, the IC50 in the assay with Entamoeba histolytica and in the assay on Plasmodium falciparum was 200 µM each time. As for `CCCCCCc1ccc(NC(P(=O)(O)O)P(=O)(O)O)cc1`, the IC50 in the assay with Entamoeba histolytica came out at 36 µM; in the assay with Plasmodium falciparum, 103 µM. Taken in the same sequence, the figures for `CN(CCCc1ccccc1)CCCC(O)(P(=O)(O)O)P(=O)(O)O` were 45 µM and 23 µM. Turning to `O=P(O)(O)C(N1CCCCCC1)P(=O)(O)O` [N-(HEXAMETHYLENEIMINO)METHYLENEBISPHOSPHONIC ACID], the IC50 with Entamoeba histolytica and with Plasmodium falciparum was 200 µM each time. The compound `CSc1ccc(CCC[C@H]2C(=O)O[C@@H]3O[C@@]4(C)CC[C@H]5[C@H](C)CC[C@@H]2[C@@]35OO4)cc1` yielded an IC50 with Leishmania donovani of 1 µM. `C[C@@H]1CC[C@H]2[C@@H](CCCC(F)(F)F)C(=O)O[C@@H]3O[C@@]4(C)CC[C@@H]1[C@]32OO4`: the midpoint of inhibition in the assay with Leishmania donovani, the IC50, lay at 79 µM.

On to `Cc1csc(NC(P(=O)(O)O)P(=O)(O)O)n1`, for which the IC50 was found to be 200 µM in the assay on Entamoeba histolytica and 5 µM in the assay with Plasmodium falciparum.

Consider `NCCCCC(O)(P(=O)(O)O)P(=O)(O)O`, for which the IC50 with Entamoeba histolytica and in the assay with Plasmodium falciparum was 200 µM throughout.

Regarding `O=P(O)(O)C(NC1CCC1)P(=O)(O)O` [(CYCLOBUTYLAMINO)METHYLENEDIPHOSPHONIC ACID], the IC50 in the assay on Entamoeba histolytica and in the assay on Plasmodium falciparum was 200 µM throughout.

In the assay on Leishmania donovani, `CC[C@H]1C(=O)O[C@@H]2O[C@@]3(C)CC[C@H]4[C@H](C)CC[C@@H]1[C@@]24OO3` gave an IC50 of 61 µM.

For `CCCCNC(P(=O)(O)O)P(=O)(O)O` [(BUTYLAMINO)METHYLENEDIPHOSPHONIC ACID], the IC50 with Entamoeba histolytica and in the assay on Plasmodium falciparum was 200 µM throughout. `CCCN(CCC)c1c([N+](=O)[O-])cc(S(=O)(=O)N(c2ccccc2)c2ccccc2)cc1[N+](=O)[O-]` gave a half-inhibitory concentration (IC50) with Leishmania donovani of 100 µM.

Consider `O=P(O)(O)C(N1CCSCC1)P(=O)(O)O` [THIOMORPHOLINOMETHYLENEDIPHOSPHONIC ACID], for which the IC50 in the assay with Entamoeba histolytica and with Plasmodium falciparum was 200 µM throughout. For `CCC[C@@]12CC[C@H]3[C@H](C)CC[C@H]4CC(=O)O[C@H](O1)[C@]43OO2`, the concentration for half-maximal inhibition (IC50) in the assay with Leishmania donovani stood at 41 µM. As to `CCCCCN(C)CCC(O)(P(=O)(O)O)P(=O)(O)O` [IBANDRONIC ACID], the IC50 in the assay on Entamoeba histolytica was 54 µM; in the assay with Plasmodium falciparum, 59 µM. For `O=P(O)(O)C(Nc1ccc2c(c1)CCC2)P(=O)(O)O`, the IC50 in the assay with Entamoeba histolytica and with Plasmodium falciparum was 200 µM throughout. As to `NCCCC(O)(P(=O)(O)O)P(=O)(O)O` [ALENDRONIC ACID], the IC50 in the assay on Entamoeba histolytica and with Plasmodium falciparum was 200 µM each time. Take `CCCCCC(C)CNC(P(=O)(O)O)P(=O)(O)O` (stereo not given): the 50% inhibitory concentration (IC50) amounted to 65 µM in the assay on Entamoeba histolytica and 103 µM in the assay with Plasmodium falciparum. Taken in the same sequence, the figures for `O=P(O)(O)C(Nc1cccc(-c2ccccc2)c1)P(=O)(O)O` were 7 µM and 200 µM. With `O=P(O)(O)C(NC1CCCCCC1)P(=O)(O)O` [INCADRONIC ACID], the IC50 with Entamoeba histolytica and with Plasmodium falciparum was 200 µM throughout.

In the case of `CN(CCCCc1ccccc1)CCCCC(O)(P(=O)(O)O)P(=O)(O)O`, the IC50 in the assay with Entamoeba histolytica is 23 µM; in the assay on Plasmodium falciparum, 3 µM. Turning to `O=P(O)(O)C(Nc1cccnc1Cl)P(=O)(O)O`, the IC50 with Entamoeba histolytica and with Plasmodium falciparum was 200 µM throughout. Take `O=P(O)(O)C(Nc1ncc(Br)cc1Br)P(=O)(O)O`: the IC50 in the assay on Entamoeba histolytica came out at 29 µM; with Plasmodium falciparum, 200 µM.

Regarding `O=P(O)(O)C(O)(Cc1ccncc1)P(=O)(O)O`, the IC50 in the assay with Entamoeba histolytica and in the assay on Plasmodium falciparum was 200 µM in each case. On to `CN(C)CCC(O)(P(=O)(O)O)P(=O)(O)O` [OLPADRONIC ACID], for which the IC50 in the assay with Entamoeba histolytica and with Plasmodium falciparum was 200 µM throughout. Regarding `O=P(O)(O)C(O)(CCc1cccnc1)P(=O)(O)O`, the IC50 with Entamoeba histolytica and in the assay on Plasmodium falciparum was 200 µM each time. Regarding `O=P(O)(O)C(N1CCC(O)CC1)P(=O)(O)O`, the IC50 in the assay on Entamoeba histolytica and with Plasmodium falciparum was 200 µM each time. Take `CCc1cccc(NC(P(=O)(O)O)P(=O)(O)O)c1`: the concentration for half-maximal inhibition (IC50) with Entamoeba histolytica and with Plasmodium falciparum was 200 µM throughout. Turning to `NCCCCCC(O)(P(=O)(O)O)P(=O)(O)O` [NERIDRONIC ACID], the IC50 in the assay on Entamoeba histolytica and with Plasmodium falciparum was 200 µM each time. With `O=P(O)(O)C(O)(Cc1ccccc1)P(=O)(O)O`, the IC50 in the assay with Entamoeba histolytica turned out to be 200 µM; with Plasmodium falciparum it was 8 µM. With `O=P(O)(O)C(O)(C1CCC1)P(=O)(O)O` [CYCLOBUTYL(HYDROXY)METHYLENEDIPHOSPHONIC ACID], the 50% inhibitory concentration (IC50) in the assay on Entamoeba histolytica and with Plasmodium falciparum was 200 µM each time. For the compound `O=P(O)(O)C(CNc1ccncc1)P(=O)(O)O`, the IC50 with Entamoeba histolytica and with Plasmodium falciparum was 200 µM each time. Consider `O=P(O)(O)C(O)(C1CC1)P(=O)(O)O` [CYCLOPROPYL(HYDROXY)METHYLENEDIPHOSPHONIC ACID], for which the IC50 in the assay on Entamoeba histolytica and in the assay with Plasmodium falciparum was 200 µM each time. As to `O=P(O)(O)C(O)(C1CCCCC1)P(=O)(O)O` [CYCLOHEXYL(HYDROXY)METHYLENEDIPHOSPHONIC ACID], the IC50 in the assay on Entamoeba histolytica and in the assay with Plasmodium falciparum was 200 µM in each case. With `CC(N)CC(O)(P(=O)(O)O)P(=O)(O)O` (stereo not given), the IC50 with Entamoeba histolytica and in the assay on Plasmodium falciparum was 200 µM throughout. On to `CCOP(=O)(OCC)C(Nc1cc(C)ccn1)P(=O)(OCC)OCC`, for which the IC50 with Entamoeba histolytica and with Plasmodium falciparum was 200 µM throughout. With `O=P(O)(O)C(Nc1ccc(O)cn1)P(=O)(O)O`, the IC50 in the assay with Entamoeba histolytica came to 96 µM; with Plasmodium falciparum it was 197 µM. `CCCNC(P(=O)(O)O)P(=O)(O)O` [(PROPYLAMINO)METHYLENEDIPHOSPHONIC ACID]: the IC50 in the assay on Entamoeba histolytica and in the assay on Plasmodium falciparum was 200 µM each time. In the case of `O=C(O)c1cn(C2CC2)c2cc(N3CCN(CC(P(=O)(O)O)P(=O)(O)O)CC3)c(F)cc2c1=O`, the IC50 with Entamoeba histolytica and in the assay with Plasmodium falciparum was 200 µM throughout.
